Assay results taken from BindingDB's records for doi:10.1021/cb500018s (Johns Hopkins University, 2014).
Where a name gives a salt, the structure may show the parent alone.

The molecules below were run against T1, Amine oxidase [flavin-containing] A (Homo sapiens, UniProt P21397) (assay: MAO-A/B Activity and Inhibition Assay). Settings: pH 7.5.
T1 sequence (P21397 whole entry): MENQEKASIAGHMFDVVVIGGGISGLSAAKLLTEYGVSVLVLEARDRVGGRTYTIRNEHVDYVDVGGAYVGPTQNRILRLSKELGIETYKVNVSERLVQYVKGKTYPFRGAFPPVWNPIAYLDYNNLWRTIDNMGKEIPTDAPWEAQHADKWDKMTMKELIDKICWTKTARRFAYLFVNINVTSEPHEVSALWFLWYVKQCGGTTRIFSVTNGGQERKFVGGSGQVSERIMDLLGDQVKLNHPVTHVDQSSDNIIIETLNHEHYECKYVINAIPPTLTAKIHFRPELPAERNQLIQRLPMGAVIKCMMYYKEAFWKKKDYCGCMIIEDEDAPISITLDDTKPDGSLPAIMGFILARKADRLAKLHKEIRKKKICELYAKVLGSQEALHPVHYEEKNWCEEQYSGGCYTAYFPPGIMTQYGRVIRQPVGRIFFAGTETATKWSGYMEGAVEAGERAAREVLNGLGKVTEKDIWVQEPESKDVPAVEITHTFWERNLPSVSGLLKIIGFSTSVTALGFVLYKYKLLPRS

| Ki [nM] | SMILES |
| --- | --- |
| 2600 | NNCCc1ccc(NC(=O)CCCc2ccccc2)cc1 [N-[4-(2-Hydrazinylethyl)phenyl]-4-phenylbutanamide dihydrochloride salt (12d)] |

Each molecule was assayed against T2, Amine oxidase [flavin-containing] B (Homo sapiens, UniProt P27338) (assay: MAO-A/B Activity and Inhibition Assay). Settings: pH 7.5.
T2 sequence (P27338 whole entry): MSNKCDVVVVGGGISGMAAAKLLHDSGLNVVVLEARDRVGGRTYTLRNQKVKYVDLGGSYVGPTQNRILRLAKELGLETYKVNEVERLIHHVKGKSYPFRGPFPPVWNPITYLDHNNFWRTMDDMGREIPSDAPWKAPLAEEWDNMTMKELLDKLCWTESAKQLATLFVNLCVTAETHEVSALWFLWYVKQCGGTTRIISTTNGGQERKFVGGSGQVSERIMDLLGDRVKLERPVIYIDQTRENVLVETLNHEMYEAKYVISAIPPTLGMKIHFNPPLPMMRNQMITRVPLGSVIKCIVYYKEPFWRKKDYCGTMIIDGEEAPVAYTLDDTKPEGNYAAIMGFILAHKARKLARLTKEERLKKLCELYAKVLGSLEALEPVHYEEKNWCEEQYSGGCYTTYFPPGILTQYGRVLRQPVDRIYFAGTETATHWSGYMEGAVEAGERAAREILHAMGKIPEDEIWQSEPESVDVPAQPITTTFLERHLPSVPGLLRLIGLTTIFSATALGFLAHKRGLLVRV

| Ki [nM] | SMILES |
| --- | --- |
| 6500 | NNCCc1ccc(NC(=O)CCCc2ccccc2)cc1 [N-[4-(2-Hydrazinylethyl)phenyl]-4-phenylbutanamide dihydrochloride salt (12d)] |

Each molecule was assayed against Lysine-specific histone demethylase 1A (Homo sapiens, UniProt O60341) (assay: GST-LSD1 Enzymatic Assays). Settings: pH 7.5.

| Ki [nM] | SMILES |
| --- | --- |
| 204 | CS(=O)(=O)Oc1ccccc1CCC(=O)Nc1ccc(CCNN)cc1 [2-(3-{[4-(2-Hydrazinylethyl)phenyl]amino}-3-oxopropyl)phenyl methanesulfonate oxalate salt (12j)] |
| 223 | CS(=O)(=O)Oc1cccc(CCC(=O)Nc2ccc(CCNN)cc2)c1 [3-(3-{[4-(2-Hydrazinylethyl)phenyl]amino}-3-oxopropyl)phenyl methanesulfonate oxalate salt (12k)] |
| 156 | NNCCc1ccc(NC(=O)CCCc2ccc(Cl)cc2)cc1 [4-(4-Chlorophenyl)-N-[4-(2-hydrazinylethyl)phenyl]butanamide sulfate salt (12f)] |
| 44000 | NNCCOc1ccccc1 [(2-Phenoxyethyl)hydrazine dihydrochloride salt (10a)] |
| 100 | NNCCc1ccc(NC(=O)/C=C/c2ccccc2)cc1 [(2E)-N-[4-(2-Hydrazinylethyl)phenyl]-3-phenylprop-2-enamide sulfate salt (13)] |
| 12000 | NNCCCOc1ccccc1 [(3-Phenoxypropyl)hydrazine dihydrochloride salt (10b)] |
| 5000 | NNCCCc1ccccc1 [(3-Phenylpropyl)hydrazine dihydrochloride salt (9c)] |
| 22000 | NNCCCCc1ccccc1 [(4-Phenylbutyl)hydrazine dihydrochloride salt (9h)] |
| 1600 | NNCCc1ccc(N(Cc2ccccc2)C(=O)CCCc2ccccc2)cc1 [N-Benzyl-N-[4-(2-hydrazinylethyl)phenyl]-4-phenylbutanamide oxalate salt (12m)] |
| 370 | NNCCc1ccc(NC(=O)Cc2ccccc2)cc1 [N-[4-(2-Hydrazinylethyl)phenyl]-2-phenylacetamide dihydrochloride salt (12b)] |
| 210 | NNCCc1ccc(NC(=O)CCc2c[nH]c3ccccc23)cc1 [N-[4-(2-Hydrazinylethyl)phenyl]-3-(1H-indol-3-yl)propanamide sulfate salt (15a)] |
| 260 | NNCCc1ccc(NC(=O)CCc2ccccc2)cc1 [N-[4-(2-Hydrazinylethyl)phenyl]-3-phenylpropanamide sulfate salt (12c)] |
| 207 | COc1ccc(CCCC(=O)Nc2ccc(CCNN)cc2)cc1 [N-[4-(2-Hydrazinylethyl)phenyl]-4-(4-methoxyphenyl)butanamide sulfate salt (12h)] |
| 282 | NNCCc1ccc(NC(=O)CCCc2ccc([N+](=O)[O-])cc2)cc1 [N-[4-(2-Hydrazinylethyl)phenyl]-4-(4-nitrophenyl)butanamide sulfate salt (12i)] |
| 260 | NNCCc1ccc(NC(=O)CCCCc2ccccc2)cc1 [N-[4-(2-Hydrazinylethyl)phenyl]-5-phenylpentanamide oxalate salt (12e)] |
| 2000 | CN(C(=O)CCCc1ccccc1)c1ccc(CCNN)cc1 [N-[4-(2-Hydrazinylethyl)phenyl]-N-methyl-4-phenylbutanamide oxalate salt (12l)] |
| 280 | NNCCc1ccc(NC(=O)c2ccccc2)cc1 [N-[4-(2-Hydrazinylethyl)phenyl]benzamide dihydrochloride salt (12a)] |
| 8000 | COc1ccc(CCCNN)cc1 [[3-(4-Methoxyphenyl)propyl]hydrazine dihydrochloride salt (9e)] |
| 900 | NNCCCc1ccc(OCc2ccccc2)cc1 [{3-[4-(Benxyloxy)phenyl]propyl}hydrazine dihydrochloride salt (14)] |
